From patent publication US11866518B2, “Bicyclic peptide ligands specific for TSLP” (BicycleTx Limited, priority 2020, dated 2024) come the findings set out here.

Sequence of TSLP (Q969D9 29-159): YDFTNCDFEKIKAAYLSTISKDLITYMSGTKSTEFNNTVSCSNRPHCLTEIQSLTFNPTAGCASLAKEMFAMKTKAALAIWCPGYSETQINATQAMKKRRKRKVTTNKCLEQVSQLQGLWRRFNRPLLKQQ

The experiment addresses TSLP (Homo sapiens, UniProt Q969D9). Nature of the experiment: Human TSLP Surface Plasmon Resonance (SPR) binding assay. Particulars: biotinylated human TSLP immobilized on streptavidin chip; 20° C.; steady-state or kinetic 1:1 fit; read-out: hTSLP SPR Kd. Further details: The resulting construct spCD33-6×HN-TEV-hTSLP(29-159)-Avi; 6xHN tag with TEV site (N, cleaved yes); made in house; host or cells: Expi293F cells.
The Kd is the concentration at which binding is half-saturated. As for `CC(=O)N[C@H]1CSCCC(=O)N2CN3CN(C2)C(=O)CCSC[C@H](NC(=O)[C@H](CC(=O)O)NC(=O)[C@H](CCC(=O)O)NC(=O)[C@H](CC(C)C)NC(=O)[C@H](Cc2c[nH]c4ccc(F)cc24)NC(=O)[C@H](CCC(N)=O)NC1=O)C(=O)N[C@@H](Cc1c[nH]c2ccc(F)cc12)C(=O)N[C@@H](CCCNC(=N)N)C(=O)NCC(=O)N[C@@H](Cc1ccc(F)cc1)C(=O)N[C@H](C(N)=O)CSCCC3=O` [Example 21, Ac-(SEQ ID NO: 19)], the Kd was 9.2 nM.

As to `CC(=O)N[C@H]1CSCCC(=O)N2CN3CN(C2)C(=O)CCSC[C@H](NC(=O)[C@H](CC(=O)O)NC(=O)[C@H](CCC(=O)O)NC(=O)[C@H](CC(C)C)NC(=O)[C@H](Cc2c[nH]c4ccccc24)NC(=O)[C@H](CCC(N)=O)NC1=O)C(=O)N[C@@H](Cc1c[nH]c2ccccc12)C(=O)N[C@@H](CCCNC(=N)N)C(=O)NCC(=O)N[C@@H](Cc1ccc(Br)cc1)C(=O)N[C@H](C(N)=O)CSCCC3=O` [Example 26, Ac-(SEQ ID NO: 24)], the Kd is 11 nM.

As for `CC(=O)N[C@H]1CSCCC(=O)N2CN3CN(C2)C(=O)CCSC[C@H](NC(=O)[C@H](CC(=O)O)NC(=O)[C@H](CCC(=O)O)NC(=O)[C@H](CC(C)C)NC(=O)[C@H](Cc2c[nH]c4ccccc24)NC(=O)[C@H](CCC(N)=O)NC1=O)C(=O)N[C@@H](Cc1c[nH]c2ccccc12)C(=O)N[C@@H](CCCNC(=N)N)C(=O)NCC(=O)N[C@@H](Cc1cc(F)c(F)c(F)c1)C(=O)N[C@H](C(N)=O)CSCCC3=O` [Example 37, Ac-(SEQ ID NO: 33)], the Kd was 19 nM.

As for `CC(=O)N[C@H]1CSCCC(=O)N2CN3CN(C2)C(=O)CCSC[C@H](NC(=O)[C@H](CC(=O)O)NC(=O)[C@H](CCC(=O)O)NC(=O)[C@H](CC(C)C)NC(=O)[C@H](Cc2c[nH]c4ccccc24)NC(=O)[C@H](CCC(N)=O)NC1=O)C(=O)N[C@@H](Cc1c[nH]c2ccccc12)C(=O)N[C@@H](CCCNC(=N)N)C(=O)NCC(=O)N[C@@H](Cc1ccc(Cl)c(F)c1)C(=O)N[C@H](C(N)=O)CSCCC3=O` [Example 41, Ac-(SEQ ID NO: 37)], the dissociation constant Kd stood at 24 nM.

Turning to `CC(C)C[C@@H]1NC(=O)[C@H](Cc2c[nH]c3ccccc23)NC(=O)[C@H](CCC(N)=O)NC(=O)[C@@H](N)CSCCC(=O)N2CN3CN(C2)C(=O)CCSC[C@H](NC(=O)[C@H](CC(=O)O)NC(=O)[C@H](CCC(=O)O)NC1=O)C(=O)N[C@@H](Cc1c[nH]c2ccccc12)C(=O)N[C@@H](CCCNC(=N)N)C(=O)NCC(=O)N[C@@H](Cc1ccc(F)cc1)C(=O)N[C@H](C(=O)O)CSCCC3=O` [Example 48, (SEQ ID NO: 15)-COOH], the Kd is 33 nM.

Regarding `CC(=O)N[C@H]1CSCCC(=O)N2CN3CN(C2)C(=O)CCSC[C@H](NC(=O)[C@H](CC(=O)O)NC(=O)[C@H](CCC(=O)O)NC(=O)[C@H](CC(C)C)NC(=O)[C@H](Cc2c[nH]c4ccccc24)NC(=O)[C@H](CCC(N)=O)NC1=O)C(=O)N[C@@H](Cc1c[nH]c2ccccc12)C(=O)N[C@@H](CCCNC(=N)N)C(=O)NCC(=O)N[C@@H](Cc1ccccc1)C(=O)N[C@H](C(=O)N[C@@H](C)C(=O)N1CCC[C@H]1C(=O)N[C@@H](CC(=O)O)C(=O)N[C@@H](CCC(=O)O)C(=O)N[C@@H](CCCNC(=N)N)C(=O)N[C@@H](CC(=O)O)C(N)=O)CSCCC3=O` [Example 54, Ac-(SEQ ID NO: 38)-APDERD], the equilibrium dissociation constant (Kd) came out at 46 nM.

Take `CC(C)C[C@@H]1NC(=O)[C@H](Cc2c[nH]c3ccccc23)NC(=O)[C@H](CCC(N)=O)NC(=O)[C@@H](NC(=O)[C@H](C)N)CSCCC(=O)N2CN3CN(C2)C(=O)CCSC[C@H](NC(=O)[C@H](CC(=O)O)NC(=O)[C@H](CCC(=O)O)NC1=O)C(=O)N[C@@H](Cc1c[nH]c2ccccc12)C(=O)N[C@@H](CCCNC(=N)N)C(=O)NCC(=O)N[C@@H](Cc1ccccc1)C(=O)N[C@H](C(=O)N[C@@H](CC(=O)O)C(=O)N[C@@H](CC(=O)O)C(=O)N[C@@H](C)C(=O)N[C@@H](Cc1c[nH]cn1)C(=O)N[C@@H](C)C(=O)N1CCC[C@H]1C(N)=O)CSCCC3=O` [Example 55, A-(SEQ ID NO: 38)-DDAHAP]: the Kd was found to be 47 nM.

Regarding `CC(=O)N[C@H]1CSCCC(=O)N2CN3CN(C2)C(=O)CCSC[C@H](NC(=O)[C@H](CC(=O)O)NC(=O)[C@H](CCC(=O)O)NC(=O)[C@H](CC(C)C)NC(=O)[C@H](Cc2c[nH]c4ccccc24)NC(=O)[C@H](CCC(N)=O)NC1=O)C(=O)N[C@@H](Cc1c[nH]c2ccccc12)C(=O)N[C@@H](CCCNC(=N)N)C(=O)NCC(=O)N[C@@H](Cc1cc(F)c(Cl)c(F)c1)C(=O)N[C@H](C(N)=O)CSCCC3=O` [Example 58, Ac-(SEQ ID NO: 46)], the Kd is 52 nM.

In the case of `CC(C)C[C@@H]1NC(=O)[C@H](Cc2c[nH]c3ccccc23)NC(=O)[C@H](CCC(N)=O)NC(=O)[C@@H](NC(=O)[C@@H](NC(=O)[C@H](CCCNC(=N)N)NC(=O)[C@H](CCC(N)=O)NC(=O)[C@H](CCC(=O)O)NC(=O)[C@H](CC(=O)O)NC(=O)[C@@H](N)CO)[C@@H](C)O)CSCCC(=O)N2CN3CN(C2)C(=O)CCSC[C@H](NC(=O)[C@H](CC(=O)O)NC(=O)[C@H](CCC(=O)O)NC1=O)C(=O)N[C@@H](Cc1c[nH]c2ccccc12)C(=O)N[C@@H](CCCNC(=N)N)C(=O)NCC(=O)N[C@@H](Cc1ccccc1)C(=O)N[C@H](C(=O)N[C@@H](C)C(N)=O)CSCCC3=O` [Example 61, SDEQRT-(SEQ ID NO: 38)-A], the dissociation constant (Kd) was 62 nM.

On to `CC(C)C[C@@H]1NC(=O)[C@H](Cc2c[nH]c3ccccc23)NC(=O)[C@H](CCC(N)=O)NC(=O)[C@@H](NC(=O)CNC(=O)[C@@H](NC(=O)[C@H](CCC(=O)O)NC(=O)[C@H](CC(=O)O)NC(=O)[C@@H](NC(=O)[C@@H](N)CCCNC(=N)N)[C@@H](C)O)[C@@H](C)O)CSCCC(=O)N2CN3CN(C2)C(=O)CCSC[C@H](NC(=O)[C@H](CC(=O)O)NC(=O)[C@H](CCC(=O)O)NC1=O)C(=O)N[C@@H](Cc1c[nH]c2ccccc12)C(=O)N[C@@H](CCCNC(=N)N)C(=O)NCC(=O)N[C@@H](Cc1ccccc1)C(=O)N[C@H](C(=O)N[C@@H](C)C(N)=O)CSCCC3=O` [Example 67, RTDETG-(SEQ ID NO: 38)-A], for which the Kd was found to be 75 nM.

On to `CC(=O)N[C@H]1CSCCC(=O)N2CN3CN(C2)C(=O)CCSC[C@H](NC(=O)[C@H](CC(=O)O)NC(=O)[C@H](CCC(=O)O)NC(=O)[C@H](CC(C)C)NC(=O)[C@H](Cc2cccc4ccccc24)NC(=O)[C@H](CCC(N)=O)NC1=O)C(=O)N[C@@H](Cc1c[nH]c2ccccc12)C(=O)N[C@@H](CCCNC(=N)N(C)C)C(=O)NCC(=O)N[C@@H](Cc1ccc(F)cc1)C(=O)N[C@H](C(=O)O)CSCCC3=O` [Example 69, Ac-(SEQ ID NO: 34)-COOH], for which the Kd turned out to be 77 nM.

`CC(C)C[C@@H]1NC(=O)[C@H](Cc2c[nH]c3ccccc23)NC(=O)[C@H](CCC(N)=O)NC(=O)[C@@H](NC(=O)[C@H](CCC(=O)O)NC(=O)[C@H](CC(C)C)NC(=O)[C@H](CC(N)=O)NC(=O)[C@H](CC(N)=O)NC(=O)[C@@H](NC(=O)[C@@H](N)CCC(=O)O)[C@@H](C)O)CSCCC(=O)N2CN3CN(C2)C(=O)CCSC[C@H](NC(=O)[C@H](CC(=O)O)NC(=O)[C@H](CCC(=O)O)NC1=O)C(=O)N[C@@H](Cc1c[nH]c2ccccc12)C(=O)N[C@@H](CCCNC(=N)N)C(=O)NCC(=O)N[C@@H](Cc1ccccc1)C(=O)N[C@H](C(=O)N[C@@H](C)C(N)=O)CSCCC3=O` [Example 71, ETNNLE-(SEQ ID NO: 38)-A]: the Kd was 82 nM.
